TGI and GI50 data for ten molecules are collected here from PubChem BioAssay (NCI).

Several values for one entry are separate records, joined by “and”; a condition that tells them apart may be missing. Equal values may be shown once.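 Five compound concentrations were applied to cells in 96-well plates for 48 hours; endpoints were derived by simple linear interpolation of the resulting dose-response curve. GI50 is the concentration that inhibits growth by half. Definition used: TGI = concentration required for complete inhibition of growth.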

Test systems include LOX IMVI melanoma; ACHN renal; A549 NSCLC; A498 renal; OVCAR-4 ovarian; RPMI-8226 leukemia; HOP-92 NSCLC; MOLT-4 leukemia; T-47D breast; MDA-MB-231 breast.
Holding throughout (test): inhibition of tumour cell growth, NCI panel, 48 h

With `N#CN/C(N)=N/CO`, the TGI with LOX IMVI melanoma was over 57.7 µM; with ACHN renal, over 100 µM; with A549 NSCLC it was over 100 µM; in the experiment with A498 renal it was over 100 µM; with OVCAR-4 ovarian, over 100 µM; in the experiment with RPMI-8226 leukemia, over 76.2 µM. Further, the TGI with HOP-92 NSCLC and with MOLT-4 leukemia was over 100 µM in each case.
On to `COc1cccc2c1C(=O)c1c(O)c3c(c(O)c1C2=O)C[C@@](O)(C(=O)CO)C[C@@H]3OC1CC(N)CC(C)O1` (stereo partly specified), for which the GI50 with LOX IMVI melanoma is 0.0295 µM and 0.0231 µM; with ACHN renal it was 0.0175 µM; with A549 NSCLC it was 0.00992 µM and 0.0107 µM and 0.0315 µM; in the experiment on A498 renal, 0.111 µM and 0.0375 µM; in the experiment on OVCAR-4 ovarian, 0.0885 µM; in the experiment on T-47D breast, 0.067 µM. The GI50 is 0.232 µM with MDA-MB-231 breast; 0.0178 µM and 0.0704 µM with RPMI-8226 leukemia; 0.0638 µM with HOP-92 NSCLC. The TGI with LOX IMVI melanoma is 0.262 µM and 0.12 µM; with ACHN renal it was 0.289 µM; in the experiment on A498 renal it was 0.366 µM and 0.165 µM; in the experiment on OVCAR-4 ovarian, 0.456 µM and 0.413 µM; in the experiment with T-47D breast, 1.13 µM and 0.696 µM; with MDA-MB-231 breast, 0.675 µM and 0.78 µM. Further, the TGI with RPMI-8226 leukemia is 0.547 µM and 1.72 µM; with HOP-92 NSCLC, 0.275 µM and 0.353 µM.
As to `NC(N)=N/N=C/c1c(-c2ccsc2)nc2sccn12`, the GI50 was 17.6 µM in the experiment with LOX IMVI melanoma; 16.9 µM with ACHN renal; 21.7 µM in the experiment with A549 NSCLC; 17.5 µM with A498 renal; 13.6 µM in the experiment with OVCAR-4 ovarian; 16.8 µM in the experiment with T-47D breast. The GI50 in the experiment with MDA-MB-231 breast is 16.6 µM; in the experiment with RPMI-8226 leukemia it was 4.83 µM; in the experiment on MOLT-4 leukemia it was 10.8 µM. For the same molecule, the TGI with LOX IMVI melanoma was 33.2 µM; with ACHN renal, 32 µM; in the experiment on A549 NSCLC, 43.7 µM; in the experiment on A498 renal it was 31.8 µM; with OVCAR-4 ovarian, 27.1 µM; in the experiment with T-47D breast it was 31.9 µM. The figures for the TGI in the experiment with MDA-MB-231 breast, in the experiment on RPMI-8226 leukemia and with MOLT-4 leukemia were 30.9 µM, 20.7 µM and 39 µM, respectively.
Regarding `CCOC(=O)C(C#N)C1=CC(=O)C(=O)c2ccc(OC)cc21` (stereo unspecified), the TGI came out at 40.7 µM in the experiment on LOX IMVI melanoma; 30.9 µM in the experiment with ACHN renal; 41 µM in the experiment with A549 NSCLC; 58.9 µM with A498 renal; 33.7 µM in the experiment with OVCAR-4 ovarian; 34.5 µM in the experiment on T-47D breast. The TGI in the experiment on MDA-MB-231 breast was 29.1 µM; in the experiment with RPMI-8226 leukemia it was over 100 µM; in the experiment with MOLT-4 leukemia, over 100 µM.
For the molecule `CNCc1ccccc1-c1csc([C@@H](C)Nc2nc(C)nc3cc(OC)c(OC)cc23)c1`, the GI50 with LOX IMVI melanoma was 1.57 µM; with ACHN renal it was 1.33 µM; in the experiment on A549 NSCLC, 1.94 µM; with A498 renal it was 0.289 µM; in the experiment on OVCAR-4 ovarian it was 2.4 µM; in the experiment on T-47D breast, 1.85 µM. Moreover, the GI50 is 1.85 µM with MDA-MB-231 breast and 1.77 µM in the experiment with RPMI-8226 leukemia. Also, the TGI is 2.98 µM with LOX IMVI melanoma; 2.62 µM in the experiment on ACHN renal; 5.73 µM with A549 NSCLC; 1.92 µM in the experiment with A498 renal; 10.7 µM in the experiment on OVCAR-4 ovarian; 4.1 µM with T-47D breast. In addition, the TGI in the experiment with MDA-MB-231 breast is 3.78 µM; in the experiment on RPMI-8226 leukemia, 4.3 µM.
Turning to `S=C(Nc1ccc(Cl)cc1)Nc1ccc(-c2nc3ccccc3s2)cc1`, the GI50 in the experiment with LOX IMVI melanoma was 24.3 µM; with ACHN renal it was 15.4 µM; in the experiment on A549 NSCLC it was 14.9 µM; in the experiment with OVCAR-4 ovarian, 14.4 µM; in the experiment with T-47D breast, 5.19 µM; in the experiment with MDA-MB-231 breast it was 15.3 µM. Besides, the GI50 in the experiment with RPMI-8226 leukemia was 20.9 µM; in the experiment with HOP-92 NSCLC, 17.2 µM. Also, the TGI in the experiment with LOX IMVI melanoma was over 100 µM; in the experiment on ACHN renal it was 45.4 µM; in the experiment with A549 NSCLC it was 32.2 µM; with OVCAR-4 ovarian, 69.4 µM; in the experiment with T-47D breast, 38.9 µM; in the experiment on MDA-MB-231 breast, 34.3 µM. The TGI in the experiment on RPMI-8226 leukemia is 64.5 µM; in the experiment with HOP-92 NSCLC, 45.5 µM; in the experiment on MOLT-4 leukemia it was over 100 µM.
For the molecule `COc1ccc2occ(CCC(=O)O)c2c1`, the TGI in the experiment with LOX IMVI melanoma, with ACHN renal, with A549 NSCLC, with A498 renal, with OVCAR-4 ovarian and in the experiment with RPMI-8226 leukemia was over 100 µM throughout. Moreover, the TGI with HOP-92 NSCLC and in the experiment with MOLT-4 leukemia was over 100 µM throughout.
Regarding `COC(=O)C[C@](O)(CCCC(C)(C)O)C(=O)O[C@@H]1C(OC)=C[C@]23CCCN2CCc2cc4c(cc2[C@H]13)OCO4`, the GI50 is 0.0129 µM with LOX IMVI melanoma; 0.0407 µM with ACHN renal; 0.0953 µM and 0.0238 µM with A549 NSCLC; 0.0173 µM in the experiment with A498 renal; 0.0221 µM in the experiment with OVCAR-4 ovarian; 0.0297 µM in the experiment on T-47D breast. In addition, the GI50 is 0.087 µM in the experiment with MDA-MB-231 breast, 0.0288 µM in the experiment on RPMI-8226 leukemia and 0.0224 µM with HOP-92 NSCLC. Also, the TGI was 4.64 µM and 0.541 µM with ACHN renal; 0.146 µM and 0.0396 µM with A498 renal; 1.15 µM and 0.149 µM in the experiment on OVCAR-4 ovarian; 0.419 µM and 0.84 µM in the experiment with RPMI-8226 leukemia; 0.633 µM and 0.156 µM in the experiment on HOP-92 NSCLC.
Consider `NC(=S)N/N=C/C(=O)O`, for which the GI50 was over 100 µM in the experiment with LOX IMVI melanoma; over 100 µM in the experiment with ACHN renal; 96.8 µM in the experiment with A549 NSCLC; over 100 µM in the experiment with A498 renal; 37.5 µM in the experiment with OVCAR-4 ovarian; 21.3 µM in the experiment on T-47D breast. The GI50 in the experiment with MDA-MB-231 breast is 81.6 µM; in the experiment with RPMI-8226 leukemia, over 100 µM; in the experiment on MOLT-4 leukemia it was 72.5 µM. The TGI with LOX IMVI melanoma, in the experiment on ACHN renal, with A549 NSCLC, with A498 renal, in the experiment with OVCAR-4 ovarian and in the experiment on T-47D breast was over 100 µM each time. Besides, the TGI with MDA-MB-231 breast, with RPMI-8226 leukemia and with MOLT-4 leukemia was over 100 µM each time.
Take `CC1=C(C(=O)Nc2ccc(F)c(Cl)c2)C(c2ccccc2O)NC(=S)N1` (stereo unspecified): the GI50 with LOX IMVI melanoma is 23.6 µM; in the experiment on ACHN renal it was over 50 µM; with A549 NSCLC, 19.6 µM; in the experiment with T-47D breast it was over 50 µM; in the experiment on MDA-MB-231 breast, over 50 µM; with RPMI-8226 leukemia, 21.6 µM. Besides, the GI50 in the experiment on HOP-92 NSCLC is over 50 µM; in the experiment on MOLT-4 leukemia it was 17.8 µM. The TGI in the experiment with LOX IMVI melanoma, with ACHN renal, in the experiment with A549 NSCLC, in the experiment with T-47D breast, in the experiment with MDA-MB-231 breast and in the experiment with RPMI-8226 leukemia was over 50 µM each time. The TGI in the experiment with HOP-92 NSCLC and with MOLT-4 leukemia was over 50 µM throughout.
